Measurements from patent US12630765B2, “Fertilizer composition for reducing methane gas emission comprising ethephon and uses thereof” (priority 2020, dated 2026).

How the values were obtained:
methanogens in soils = assay: Methane concentration in headspace of soils at fresh water conditions treated with Co-M structural analogues; details: for Methane concentration in headspace: 20 mg/kg in soils at fresh water conditions, cultivation for 50 days; for methane emission amount reduced compared to the control: 20 mg/kg in soils, 50 days, vs soils without sample treatment
Excerpt: (§1) It is known that coenzyme M (hereinbelow, “Co-M”), which is produced during the intercellular reactions of methanogens, is an inhibitor for specifically inhibiting the methanogenic activity of methanogens. Accordingly, ethephon was selected in the present invention as a structural analogue of Co-M. Specifically, CES (2-chloroethane sulfonate), BES (2-bromoethane sulfonate), and MES (2-mercaptoethane sulfonate) that are known as a structural analogue of Co-M, and ethephon (IUPAC name: 2-chloroethyl phosphonic acid) selected as a structural analogue of Co-M in the present invention were applied, each at the same concentration (20 mg/kg), to soils at fresh water conditions. Then, along with cultivation for 50 days, methane concentration in headspace and activity of the methanogens in soils were measured.
(§2) First, methane concentration in headspace was measured and emission amount of methane gas was analyzed.

[1] = system: methanogens in soils (mcrA, methyl coenzyme-M reductase gene); assay: Activity of methanogens in soils (mcrA gene copy number); details: for Activity of methanogens (mcrA gene copy no./g soil): 20 mg/kg in soils at fresh water conditions, cultivation for 50 days; for mcrA gene copy number reduced compared to the control: 20 mg/kg in soils, 50 days, vs control
Excerpt: as §1, §2

[2] = system: methanogens in soils of flooded rice paddies; assay: Methane emission from soils of flooded rice paddies during rice cultivation after fertilizer application; assay type: in vivo; details: for Methane emission: applied before rice transplanting
Experimental: To acetone in which ethephon has been dissolved at various concentrations based on the blending ratio described in the following Table 4, cellulose acetate was added and dissolved therein. After mixing the resultant with gypsum and drying the mixture till to have evaporation of acetone, the mixture was crushed to have particle size of not more than 2 mm. Accordingly, fertilizer capable of reducing methane emission amount by delaying the ethephon degradation in soils was prepared. Since acetone is highly volatile so that it can completely evaporate during the process of mixing and drying ethephon, cellulose acetate, and gypsum, it is used in minimum amount depending on the total amount of mixture. Meanwhile, the ethephon treatment amount of 2 kg/ha, 6 kg/ha, and 10 kg/ha means that ethephon is applied at concentration of 1 mg/kg, 3 mg/kg, and 5 mg/kg (ppm), respectively, in soils.
(§3) Fertilizer composition prepared by mixing ethephon, cellulose acetate, and gypsum at various mixing ratios was applied in an amount of 2 ton/ha to soils of flooded rice paddies before rice transplanting. Then, emission amount of methane during the subsequent process of cultivating rice, effect of inhibiting methane emission, and yield property of rice were analyzed.

rice = assay: Yield property of rice after fertilizer application; assay type: in vivo, Oryza sativa
Experimental: as §3

[3] = ethephon 2 kg/ha with gypsum 1940 kg/ha and CA 60 kg/ha
[4] = ethephon 6 kg/ha with gypsum 1940 kg/ha and CA 60 kg/ha
[5] = ethephon 10 kg/ha with gypsum 1940 kg/ha and CA 60 kg/ha

## O=S(=O)([O-])CCBr.[Na+] [BES, 2-bromoethane sulfonate]
Methanogens in soils
  Methane concentration in headspace: 4.4 mg/L
  methane emission amount reduced compared to the control: ~56%
[1]
  Activity of methanogens (mcrA gene copy no./g soil): 1.65 × 10^6 mcrA gene copy no./g soil
  mcrA gene copy number reduced compared to the control: ~45%

## O=S(=O)([O-])CCCl.[Na+] [CES, 2-chloroethane sulfonate]
Methanogens in soils
  Methane concentration in headspace: 5.1 mg/L
  methane emission amount reduced compared to the control: about 48%
[1]
  Activity of methanogens (mcrA gene copy no./g soil): 1.86 × 10^6 mcrA gene copy no./g soil
  mcrA gene copy number reduced compared to the control: about 39%

## O=P(O)(O)CCCl [Ethephon, 2-chloroethyl phosphonic acid]
[2]; [3]
  Effect of inhibiting methanogenesis: 50.5%
  Methane emission: 36.9 kg CH4 ha^−1
[2]; [4]
  Effect of inhibiting methanogenesis: 78.6%
  Methane emission: 15.9 kg CH4 ha^−1
[2]; [5]
  Effect of inhibiting methanogenesis: 98.1%
  Methane emission: 1.4 kg CH4 ha^−1
[2]; ethephon 10 kg/ha with gypsum 1940 kg/ha and CA 60 kg/ha, listed as ethephon
  Effect of inhibiting methanogenesis: about 98.1%
[2]; fertilizer containing ethephon vs fertilizer not containing any ethephon
  methane gas emission amount from flooded rice paddies: significantly lower
Methanogens in soils
  Methane concentration in headspace: 4.4 mg/L
  methane emission amount reduced compared to the control: ~56%
rice; [3]
  Grain yield: 6331 kg/ha
  Straw yield: 6964 kg/ha
  Yield index: 100
rice; ethephon 2 to 10 kg/ha in fertilizer
  change in rice yield in relation to the application amount of ethephon: no significant change in rice yield
rice; [4]
  Grain yield: 6298 kg/ha
  Straw yield: 6928 kg/ha
  Yield index: 99.6
rice; [5]
  Grain yield: 6315 kg/ha
  Straw yield: 6946 kg/ha
  Yield index: 99.9
[1]
  Activity of methanogens (mcrA gene copy no./g soil): 1.35 × 10^6 mcrA gene copy no./g soil
  mcrA gene copy number reduced compared to the control: ~55%
